According to PubChem BioAssay (NCI):
Values joined by “and” are separate entries in the source; they are usually repeats but may differ in a detail not shown here. Equal entries are not always repeated.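 48-hour exposure; five concentrations; linearly interpolated endpoints. GI50 = concentration required for 50% inhibition of growth. At the TGI there is no net growth.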 Where a SMILES comes first, the peptide text is derived from it. [ ]: non-standard residue; d: D form. Phe(F5) = N[CH](Cc1c(F)c(F)c(F)c(F)c1F)C(=O)O

What was measured:
Test in all cases: inhibition of tumour cell growth, NCI panel, 48 h
[1] = test system: HL-60(TB) leukemia
[2] = test system: HT29 colon
[3] = test system: K-562 leukemia
[4] = test system: KM12 colon
[5] = test system: NCI-H23 lung
[6] = test system: NCI-H460 lung
[7] = test system: SF-539 CNS
[8] = test system: SK-MEL-2 melanoma
[9] = test system: SN12C renal
[10] = test system: SNB-75 CNS

Structure (SMILES) | GI50 [1] [nM] | TGI [1] | GI50 [2] | TGI [2] | GI50 [3] [nM] | TGI [3] [µM] | GI50 [4] [nM] | TGI [4] | GI50 [5] [nM] | TGI [5] | GI50 [6] [nM] | TGI [6] | GI50 [7] [nM] | TGI [7] | GI50 [8] [nM] | TGI [8] | GI50 [9] [nM] | TGI [9] | GI50 [10] [nM] | TGI [10]
CC(=O)[O][Pb]([O]C(C)=O)([c]1ccccc1)[c]1ccccc1 | > 100000 | > 100 µM | 14500 nM | > 100 µM | > 25900 | > 100 | 12600 | > 100 µM | 2350 | 13.4 µM | 7510 | > 100 µM | 13300 | > 100 µM | 1730 | 3.75 µM | 3610 | > 100 µM | 4410 | > 77.7 µM
O=C(CCn1[nH]c(=O)c(Cl)c(Cl)c1=O)NOCCCc1ccccc1 | – | > 100 µM | – | > 100 µM | – | > 100 | – | > 100 µM | – | > 100 µM | – | > 100 µM | – | > 100 µM | – | > 100 µM | – | > 100 µM | – | > 100 µM
O=C1C/C(=C/c2ccc(/C=C3/CC(=O)N(c4cccc(Br)c4)C3=O)cc2)C(=O)N1c1cccc(Br)c1 | – | > 100 µM | – | > 100 µM | – | > 100 | – | > 100 µM | – | > 100 µM | – | > 100 µM | – | > 100 µM | – | > 100 µM | – | > 100 µM | – | 53.1 µM
Cc1ccc(C(=O)Nc2ccc(S(=O)(=O)O)c3cc(S(=O)(=O)O)cc(S(=O)(=O)O)c23)cc1NC(=O)c1cccc(N)c1 | – | > 100 µM | – | > 100 µM | – | > 100 | – | > 100 µM | – | > 100 µM | – | > 100 µM | – | > 100 µM | – | > 100 µM | – | > 100 µM | – | > 100 µM
CCC[CH2][Sn]([CH2]CCC)([O]C(C)=O)[O]C(C)=O | 524 | 1.45 µM | 1700 nM | 3.53 µM | 299 | 2.59 | 1660 | 3.77 µM | 1210 | 2.91 µM | 2600 | 7.55 µM | 1530 | 3.19 µM | 542 | 1.95 µM | 1240 | 2.54 µM | 1020 | 2.63 µM
CC[C@H](Nc1nc(N)nc(C)c1C#N)c1nc2cccc(CN(C)c3ncc(C(=O)NO)cn3)c2c(=O)n1-c1ccccc1 | 262 | 3.48 µM | 800 nM | > 17.6 µM | 390 | > 50 | 1260 | 5.21 µM | 1140 | 5.32 µM | 1150 | 11.2 µM | 591 | 6.12 µM | 1350 | 8.75 µM | 1110 | 6.03 µM | 244 | 1.82 µM
CC[C@](C)(O)C(=O)O[C@H]1C(=O)O[C@@H]2C[C@H]3C(C)=CC(=O)[C@@H](O)[C@]3(C)[C@H]3[C@@]4(O)OC[C@]32[C@@H]1[C@@H](C)[C@H]4O | 104 | 4.11 µM and 1.09 µM | 321 nM and 122 nM | 10.3 µM and 2.27 µM | 84.1 | – | 233 | 3.62 µM and 0.404 µM | 50 | 0.532 µM and 0.136 µM | 184 | 1.12 µM and 0.327 µM | 14.1 | 0.0353 µM and 0.0895 µM | – | 0.644 µM and 0.217 µM | 317 | 2.03 µM and 5.18 µM | 258 | 1.02 µM and 0.17 µM
O=C(NCCCCCCNC(=O)c1cccc2ccccc12)c1cccc2ccccc12 | – | > 100 µM | – | > 100 µM | – | > 100 | – | > 100 µM | – | > 100 µM | – | > 100 µM | – | 35.4 µM | – | 34.5 µM | – | > 100 µM | – | 9.55 µM
N=C(N)c1nn(C2OC(CO)C(O)C2O)c2nc[nH]c(=O)c12 (configuration not stated) | 207 | 0.538 µM | 2110 nM | 11.7 µM | 367 | 3.63 | 341 | 1.46 µM | 727 | 3.63 µM | 487 | 9.09 µM | 367 | 1.75 µM | 190 | 0.663 µM | 315 | 2.37 µM | 1480 | 7.27 µM
CCCC(O)[C@@H](O)c1ccc2c(c1O)C(=O)c1c(OC)cccc1C2=O (some centres not stated) | – | 42.9 µM | – | > 100 µM | – | > 100 | – | > 100 µM | – | > 100 µM | – | > 100 µM | – | 58.8 µM | – | > 100 µM | – | > 100 µM | – | > 100 µM
COC(=O)C(CC(C)C)NC(=O)C(Cc1cnc[nH]1)NC(=O)CNC(=O)C(NC(=O)C(C)NC(=O)C(Cc1c[nH]c2ccccc12)NC(=O)C(CCC(=O)O)NC(=O)C(N)Cc1c(F)c(F)c(F)c(F)c1F)C(C)C (configuration not stated) (H-[Phe(F5)]EWAVGHL-OMe; configuration not given here) | > 100000 | > 100 µM | > 100000 nM | > 100 µM | > 100000 | > 100 | > 100000 | > 100 µM | > 100000 | > 100 µM | > 100000 | > 100 µM | > 100000 | > 100 µM | > 100000 | > 100 µM | > 100000 | > 100 µM | – | > 100 µM
